Data reported in US20240208935A1, “COMPOSITIONS AND METHODS FOR TREATING NEURODEGENERATIVE DISEASES” (The Regents of the University of California, priority 2021, published 2024).

Assays:
Assay type in all cases: cell-based, mice
[1] = test system: dentate gyrus granule cells (α4β2/3δ); experiment: Tonic inhibition in dentate gyrus granule cells (selectivity); conditions: 1 nM
Excerpt: In addition to the α1β2δ GABAARs of PV+INs, the following native δ-GABAARs subunit combinations are present in the brain: (α6β2δ on cerebellar granule cells; α4β2/3δ are most prominent in the forebrain where they are found among other neurons on dentate gyrus granule cells. To establish selectivity of the compounds for the α1β2δ GABAARs of PV+INs, the compounds effects in cerebellar granule cells (α6β2δ) and dentate gyrus granule cells (α4β2/3δ) will be compared.
Selectivity measurement will be performed by dividing the blocking fractions of the compounds for tonic inhibition obtained for the PV+IN above by the values determined for cerebellar and dentate gyrus granule cells.

[2] = test system: γ-oscillations in the CA3 region hippocampal slices; experiment: In vitro KA-induced γ-oscillations in the CA3 region hippocampal slices; conditions: 1 nM; 2 min epochs before and after application; 50 nM kainic acid
Excerpt: (§1) Mice aged 8-24 weeks of both sexes will be anesthetized with halothane and decapitated according to the UCLA Chancellor's Animal Research Committee protocol. Horizontal 350 μm hippocampal slices are cut on a Leica VT1000S Vibratome in ice-cold N-Methyl-D-Glucamine (NMDG)-based HEPES-buffered cutting solution, containing in mM: NMDG 135, D-glucose 10, MgCl2 4, CaCl20.5, KCl 1, KH2PO4 1.2, HEPES 26, kynurenic acid 3, pH 7.3-7.4, 295-297 mOsm/l, bubbled with 100% O2. […]
The oscillations can be recorded in the presence of 50 nM kainic acid in horizontally cut hippocampal slices just below the CA3 pyramidal cells layer, and the oscillations recorded in vitro correspond well to those recorded in vivo during spatial reference memory. […] The squared magnitude of the FFT of the oscillations will be analyzed between 30-120 Hz. The area under the FFT curve will be calculated between these two frequencies and compared during a 2 min epoch just before the perfusion of the drug to the last 2 min of a 10 min drug perfusion. The ratios of the areas in-drug/pre-drug will be calculated as in FIG. 1B.
γ-oscillations were recorded in the presence of 50 nM kainic acid in horizontally cut hippocampal slices just below the CA3 pyramidal cells layer. These oscillations recorded in vitro correspond well to those recorded in vivo during spatial reference memory. […]

[3] = target: T1, fast synaptic α1β2γ2 receptors (Mus musculus, UniProt P22723+P62812+P63137); experiment: Phasic current recordings in fluorescently labeled PV+INs; conditions: 1 nM, 1-(current in drug/current in control), read-out: fraction inhibited of the phasic current
T1 construct: from tissue; host or cells: mouse cortical and hippocampal brain slices; tdTomato-labelled PV+ interneurons
Excerpt: as §1
(§2) For these experiments mice expressing hChR2(H134R)-tdTomato specifically in PV+Ins will be used. […] Cells will be voltage-clamped at 0 mV where tonic and phasic GABAAR mediated currents can be recorded without interference from excitatory events. The tonic and phasic components of the currents will be determined as published using Gaussian fits to the all-points histograms of 30 s epochs of recordings during the pre-drug period, 5-10 min after the washin of the drug to be tested, and 1-2 min after washing-in 40 μM of the pan-GABAAR blocker gabazine (SR-95531). The magnitude of the tonic and phasic currents willbe determined by subtracting the currents in the presence of gabazine. […]

α1β2δ GABAARs of PV+INs = target: T2, α1β2δ GABAARs of PV+INs (Mus musculus, UniProt P22933+P62812+P63137); experiment: Tonic current recordings in fluorescently labeled PV+INs; conditions: 1 nM, 1-(current in drug/current in control), read-out: fraction inhibited of the tonic current
T2 construct: the native α1β2δ receptors of PV+INs; from tissue; host or cells: mouse cortical and hippocampal brain slices; tdTomato-labelled PV+ interneurons
Excerpt: as §1, §2

T2 sequence (P62812 28-455): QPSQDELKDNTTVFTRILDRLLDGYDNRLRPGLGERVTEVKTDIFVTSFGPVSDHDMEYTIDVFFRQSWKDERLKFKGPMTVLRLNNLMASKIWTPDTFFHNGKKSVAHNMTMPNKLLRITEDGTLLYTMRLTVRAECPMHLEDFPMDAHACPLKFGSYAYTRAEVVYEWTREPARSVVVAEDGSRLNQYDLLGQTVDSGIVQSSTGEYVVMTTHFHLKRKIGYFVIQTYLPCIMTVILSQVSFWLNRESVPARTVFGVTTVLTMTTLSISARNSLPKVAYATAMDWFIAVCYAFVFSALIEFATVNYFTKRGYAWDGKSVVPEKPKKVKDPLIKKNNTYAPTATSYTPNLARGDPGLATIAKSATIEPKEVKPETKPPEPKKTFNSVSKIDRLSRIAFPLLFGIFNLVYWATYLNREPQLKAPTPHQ
T2 sequence (P63137 26-512): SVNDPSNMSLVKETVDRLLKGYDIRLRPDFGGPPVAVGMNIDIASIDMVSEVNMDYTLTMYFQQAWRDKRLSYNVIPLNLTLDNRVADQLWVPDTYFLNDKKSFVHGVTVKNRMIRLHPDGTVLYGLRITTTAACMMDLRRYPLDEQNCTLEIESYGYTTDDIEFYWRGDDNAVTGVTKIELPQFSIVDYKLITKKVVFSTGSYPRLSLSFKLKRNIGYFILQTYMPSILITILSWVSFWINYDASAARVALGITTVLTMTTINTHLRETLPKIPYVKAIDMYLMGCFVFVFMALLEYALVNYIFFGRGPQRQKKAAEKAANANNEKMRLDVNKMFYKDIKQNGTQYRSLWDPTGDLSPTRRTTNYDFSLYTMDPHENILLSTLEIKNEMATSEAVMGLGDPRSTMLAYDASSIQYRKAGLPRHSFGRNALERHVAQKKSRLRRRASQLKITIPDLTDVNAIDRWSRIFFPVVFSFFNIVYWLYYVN
T2 sequence (P22933 25-449): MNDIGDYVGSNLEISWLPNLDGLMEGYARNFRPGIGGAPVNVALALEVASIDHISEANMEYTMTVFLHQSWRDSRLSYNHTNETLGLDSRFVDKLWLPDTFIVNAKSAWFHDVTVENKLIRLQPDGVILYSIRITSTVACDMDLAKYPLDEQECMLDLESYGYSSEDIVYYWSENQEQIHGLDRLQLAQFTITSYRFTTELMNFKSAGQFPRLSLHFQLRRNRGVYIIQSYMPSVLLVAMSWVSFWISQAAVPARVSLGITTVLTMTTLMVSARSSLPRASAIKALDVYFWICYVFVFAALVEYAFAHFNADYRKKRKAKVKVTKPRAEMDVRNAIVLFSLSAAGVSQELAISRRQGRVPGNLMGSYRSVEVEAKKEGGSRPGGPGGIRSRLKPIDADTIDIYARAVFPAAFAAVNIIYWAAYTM
T1 sequence (P62812 28-455): as the sequence (P62812 28-455) above
T1 sequence (P63137 25-512 limits assumed): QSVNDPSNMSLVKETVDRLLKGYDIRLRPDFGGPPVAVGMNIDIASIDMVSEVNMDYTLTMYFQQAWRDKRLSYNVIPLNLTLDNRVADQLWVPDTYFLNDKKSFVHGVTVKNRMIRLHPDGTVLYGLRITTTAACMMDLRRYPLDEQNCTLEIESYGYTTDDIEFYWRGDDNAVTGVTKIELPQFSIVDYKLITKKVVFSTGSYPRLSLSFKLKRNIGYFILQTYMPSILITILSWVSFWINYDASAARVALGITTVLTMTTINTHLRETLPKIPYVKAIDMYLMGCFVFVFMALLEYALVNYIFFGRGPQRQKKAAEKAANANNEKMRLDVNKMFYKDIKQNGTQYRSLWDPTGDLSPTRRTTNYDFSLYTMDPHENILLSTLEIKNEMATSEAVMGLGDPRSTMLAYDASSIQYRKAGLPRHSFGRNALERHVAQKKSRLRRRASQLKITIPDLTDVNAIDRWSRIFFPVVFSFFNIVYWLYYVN
T1 sequence (P22723 39-474): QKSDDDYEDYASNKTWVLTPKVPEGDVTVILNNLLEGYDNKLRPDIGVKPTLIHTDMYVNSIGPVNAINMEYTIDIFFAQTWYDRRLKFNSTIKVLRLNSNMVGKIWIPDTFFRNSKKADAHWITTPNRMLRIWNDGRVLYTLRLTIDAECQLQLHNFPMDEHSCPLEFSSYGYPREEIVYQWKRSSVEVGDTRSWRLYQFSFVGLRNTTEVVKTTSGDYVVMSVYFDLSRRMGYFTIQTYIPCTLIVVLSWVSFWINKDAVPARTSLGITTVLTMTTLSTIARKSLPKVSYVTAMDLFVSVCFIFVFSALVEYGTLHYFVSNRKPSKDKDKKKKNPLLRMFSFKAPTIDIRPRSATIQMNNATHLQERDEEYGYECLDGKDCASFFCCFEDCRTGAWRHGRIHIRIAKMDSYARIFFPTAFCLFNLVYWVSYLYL

On1cc(C2CCNCC2)c(Cc2ccc3ccccc3c2)n1 [DDL-920, 3-(naphthalen-2-ylmethyl)-4-(piperidin-4-yl)-1H-pyrazol-1-ol]
blocking fraction for tonic inhibition in dentate granule cells [1]: 0.376
selectivity, PV+IN vs dentate granule cell blocking fraction of tonic inhibition ([1]; PV+IN/dentate granule cell): 2.11
ratio of the drug/control areas under the FFT curve between 30-120 Hz [2]: 4.26
inhibition at 0.001 µM [3]: 1.1%
inhibition at 0.001 µM (α1β2δ GABAARs of PV+INs): 79.2%
